{"source": "ChEMBL document CHEMBL4732046", "about": "“A red-light-activated sulfonamide porphycene for highly efficient photodynamic therapy against hypoxic tumor” (Eur J Med Chem, 2021)", "key": {"A-375 [1]": {"test_system": "A-375", "experiment": "Photocytotoxicity against human A-375 cells assessed as reduction in cell viability irradiated with 640 +/- 15 nm red LED for 4 hrs measured after 24 hrs by MTT assay", "format": "functional, cell-based", "conditions": "A-375, light or radiation study"}, "HeLa [2]": {"test_system": "HeLa", "experiment": "Photocytotoxicity against human HeLa cells assessed as reduction in cell viability irradiated with 640 +/- 15 nm red LED for 4 hrs measured after 24 hrs under hypoxic condition by MTT assay", "format": "functional, cell-based", "conditions": "light or radiation study"}, "B16 [3]": {"test_system": "B16", "experiment": "Photocytotoxicity against mouse B16 cells assessed as reduction in cell viability irradiated with 640 +/- 15 nm red LED for 4 hrs measured after 24 hrs under hypoxic condition by MTT assay", "format": "functional, cell-based", "conditions": "B16, light or radiation study"}, "A-375 [4]": {"test_system": "A-375", "experiment": "Antiproliferative activity against human A-375 cells assessed as inhibition of cell proliferation irradiated with 640 +/- 15 nm red LED for 4 hrs in presence of 30 uM L-histidine measured after 24 hrs by MTT assay", "format": "functional, cell-based"}, "A-375 [5]": {"test_system": "A-375", "experiment": "Antiproliferative activity against human A-375 cells assessed as inhibition of cell proliferation irradiated with 640 +/- 15 nm red LED for 4 hrs in presence of 30 uM L-histidine measured after 24 hrs under hypoxic condition by MTT assay", "format": "functional, cell-based"}, "[6]": {"experiment": "Drug uptake in mouse B16 cells mitochondria incubated for 24 hrs by mito-tracker green based confocal microscopic method", "format": "ADME", "conditions": "b16, 24 h"}, "A-375 [7]": {"test_system": "A-375", "experiment": "Induction of intracellular reactive oxygen species production in human A-375 cells irradiated with 640 +/- 15 nm red LED for 1 hrs measured after 4 hrs by DCFH-DA probe based flow cytometry", "format": "functional, cell-based", "conditions": "dose nM <=300, time 4.0 hrs"}, "A-375 [8]": {"test_system": "A-375", "experiment": "Induction of morphological changes in human A-375 cells assessed as chromatin condensation at 100 to 300 nM incubated for 24 hrs by Hoechst 33258 staining based assay", "format": "functional, cell-based", "conditions": "dose 100-300 nM"}, "B16 [9]": {"test_system": "B16", "experiment": "Induction of morphological changes in mouse B16 cells assessed as nuclear shrinkage at 200 to 400 nM incubated for 24 hrs by Hoechst 33258 staining based assay", "format": "functional, cell-based", "conditions": "dose 200-400 nM"}, "A-375 [10]": {"test_system": "A-375", "experiment": "Induction of apoptosis in human A-375 cells assessed as apoptotic cells at 300 nM […] irradiated with 640 +/- 15 nm red LED for 1 hrs after 24 hrs by Annexin V-FITC/propidium iodide staining based flow cytometric analysis relative to control", "format": "functional, cell-based"}, "B16 [11]": {"test_system": "B16", "experiment": "Induction of apoptosis in mouse B16 cells assessed as apoptotic cells at 400 nM irradiated with 640 +/- 15 nm red LED for 1 hrs after 24 hrs by Annexin V-FITC/propidium iodide staining based flow cytometric analysis relative to control", "format": "functional, cell-based"}, "A-375 [12]": {"test_system": "A-375", "experiment": "Induction of mitochondrial membrane potential disruption in human A-375 cells assessed as reduction in red fluorescence upto 300 nM irradiated with 640 +/- 15 nm red LED for 1 hrs measured after 24 hrs by JC1 staining based fluorescence microscopy", "format": "functional, cell-based", "conditions": "dose nM <=300, time 24.0 hrs"}, "A-375 [13]": {"test_system": "A-375", "experiment": "Induction of apoptosis in human A-375 cells assessed as increase in Bad level at 100 to 300 nM irradiated with 640 +/- 15 nm red LED for 1 hrs measured after 24 hrs by Western blot analysis", "format": "functional, cell-based", "conditions": "dose 100-300 nM"}, "B16 [14]": {"test_system": "B16", "experiment": "Induction of apoptosis in mouse B16 cells assessed as increase in Bad level at 200 to 400 nM irradiated with 640 +/- 15 nm red LED for 1 hrs measured after 24 hrs by Western blot analysis", "format": "functional, cell-based", "conditions": "dose 200-400 nM"}, "B16 [15]": {"test_system": "B16", "experiment": "Induction of apoptosis in mouse B16 cells assessed as decrease in Bcl2 level at 200 to 400 nM irradiated with 640 +/- 15 nm red LED for 1 hrs measured after 24 hrs by Western blot analysis", "format": "functional, cell-based", "conditions": "dose 200-400 nM"}, "A-375 [16]": {"test_system": "A-375", "experiment": "Induction of apoptosis in human A-375 cells assessed as increase in cleaved caspase 9 level at 100 to 300 nM irradiated with 640 +/- 15 nm red LED for 1 hrs measured after 24 hrs by Western blot analysis", "format": "functional, cell-based", "conditions": "dose 100-300 nM"}, "B16 [17]": {"test_system": "B16", "experiment": "Induction of apoptosis in mouse B16 cells assessed as increase in cleaved caspase 9 level at 200 to 400 nM irradiated with 640 +/- 15 nm red LED for 1 hrs measured after 24 hrs by Western blot analysis", "format": "functional, cell-based", "conditions": "dose 200-400 nM"}, "B16 [18]": {"test_system": "B16", "experiment": "Induction of apoptosis in mouse B16 cells assessed as increase in cytochrome c level at 200 to 400 nM irradiated with 640 +/- 15 nm red LED for 1 hrs measured after 24 hrs by Western blot analysis", "format": "functional, cell-based", "conditions": "dose 200-400 nM"}, "[19]": {"experiment": "Toxicity in BALB/c mouse xenografted with human A-375 cells assessed as body weight at 50 uM, IT once every 2 days for 2 weeks followed every dosing irradiated with 640 +/- 15 nm red LED for 4 hrs", "conditions": "in vivo, other, 336 h"}, "[20]": {"experiment": "Toxicity in C57BL/6 mouse model assessed as effect on heart treated intratumorally once every 2 days for 2 weeks followed every dosing irradiated with 640 +/- 15 nm red LED for 4 hrs measured upto 28 days by H and E staining dependent light microscopy based histopathological analysis", "format": "tissue-based", "conditions": "in vivo, other, time <=28 day"}, "[21]": {"experiment": "Toxicity in C57BL/6 mouse model assessed as effect on kidney treated intratumorally once every 2 days for 2 weeks followed every dosing irradiated with 640 +/- 15 nm red LED for 4 hrs measured upto 28 days by H and E staining dependent light microscopy based histopathological analysis", "format": "tissue-based", "conditions": "in vivo, other, time <=28 day"}, "[22]": {"experiment": "Toxicity in C57BL/6 mouse model assessed as effect on spleen treated intratumorally once every 2 days for 2 weeks followed every dosing irradiated with 640 +/- 15 nm red LED for 4 hrs measured upto 28 days by H and E staining dependent light microscopy based histopathological analysis", "format": "tissue-based", "conditions": "in vivo, other, time <=28 day"}, "[23]": {"experiment": "Toxicity in C57BL/6 mouse model assessed as change in white blood cell count measured after 14 days", "format": "tissue-based", "conditions": "336 h, time 14 day"}, "[24]": {"experiment": "Toxicity in C57BL/6 mouse assessed as effect on aspartate aminotransferase level measured after 2 days", "conditions": "in vivo, 48 h, time 2 day"}, "[25]": {"experiment": "Toxicity in C57BL/6 mouse assessed as effect on creatine kinase level measured upto 14 days", "conditions": "in vivo, 336 h, time <=14 day"}, "HeLa [26]": {"test_system": "HeLa", "experiment": "Photo-therapeutic index, ratio of LD50 for photocytotoxicity against human HeLa cells assessed as reduction in cell viability irradiated with 640 +/- 15 nm red LED for 4 hrs measured after 24 hrs by MTT assay to LD50 for cytotoxicity against human HeLa cells assessed as cell viability in dark measured after 24 hrs by MTT assay", "format": "functional"}, "[27]": {"experiment": "Drug uptake in mouse B16 cells incubated for 24 hrs in presence of 2-deoxyglucose and sodium azide by mito-tracker green based confocal microscopic method", "format": "ADME, cell-based", "conditions": "b16, 24 h"}, "A-375 [28]": {"test_system": "A-375", "experiment": "Antitumor activity against human A-375 cells xenografted in BALB/c mouse assessed as tumor growth inhibition by measuring nuclear pyknosis treated at high dose intratumorally once every 2 days for 2 weeks followed every dosing irradiated with 640 +/- 15 nm red LED for 4 hrs measured after 14 days treatment", "format": "functional, cell-based", "conditions": "time 14.0 day"}, "B16 [29]": {"test_system": "B16", "experiment": "Antitumor activity against mouse B16 cells xenografted in C57BL/6 mouse assessed as tumor growth inhibition by measuring nuclear pyknosis treated at high dose intratumorally once every 2 days for 2 weeks followed every dosing irradiated with 640 +/- 15 nm red LED for 4 hrs measured after 14 days treatment", "format": "functional, cell-based", "conditions": "time 14.0 day"}, "B16 [30]": {"test_system": "B16", "experiment": "Antitumor activity against mouse B16 cells xenografted in C57BL/6 mouse assessed as tumor growth inhibition by measuring nuclear TUNEL-positive treated at high dose intratumorally once every 2 days for 2 weeks followed every dosing irradiated with 640 +/- 15 nm red LED for 4 hrs measured after 14 days treatment", "format": "functional, cell-based", "conditions": "time 14.0 day"}}, "note": "Active and inactive are the calls of the source. The calls are words filed in the database; no cut-off is given here."}
{"smiles": "CC(C)(C)C1=Cc2nc1ccc1[nH]c(cc1S(=O)(=O)NCCOCCO)c1nc(ccc3[nH]c2cc3C(C)(C)C)C(C(C)(C)C)=C1", "values": [{"measurement": "DC50", "setting": "A-375 [1]", "result": 192, "unit": "nM"}, {"measurement": "DC50", "setting": "HeLa [2]", "result": 49, "unit": "nM"}, {"measurement": "DC50", "setting": "B16 [3]", "result": 360, "unit": "nM"}, {"measurement": "Activity", "setting": "A-375 [4]", "result": "Active"}, {"measurement": "Activity", "setting": "A-375 [5]", "result": "Active"}, {"measurement": "Drug uptake", "setting": "[6]", "result": "Active"}, {"measurement": "Activity", "setting": "A-375 [7]", "result": "Dose-dependent effect"}, {"measurement": "Activity", "setting": "A-375 [8]", "result": "Active"}, {"measurement": "Activity", "setting": "B16 [9]", "result": "Active"}, {"measurement": "Activity", "setting": "A-375 [10]", "result": "Active"}, {"measurement": "Activity", "setting": "B16 [11]", "result": "Active"}, {"measurement": "Activity", "setting": "A-375 [12]", "result": "Active"}, {"measurement": "Activity", "setting": "A-375 [13]", "result": "Active"}, {"measurement": "Activity", "setting": "B16 [14]", "result": "Active"}, {"measurement": "Activity", "setting": "B16 [15]", "result": "Active"}, {"measurement": "Activity", "setting": "A-375 [16]", "result": "Active"}, {"measurement": "Activity", "setting": "B16 [17]", "result": "Active"}, {"measurement": "Activity", "setting": "B16 [18]", "result": "Active"}, {"measurement": "Activity", "setting": "[19]", "result": "Non-Toxic"}, {"measurement": "Activity", "setting": "[20]", "result": "Non-Toxic"}, {"measurement": "Activity", "setting": "[21]", "result": "Non-Toxic"}, {"measurement": "Activity", "setting": "[22]", "result": "Non-Toxic"}, {"measurement": "Activity", "setting": "[23]", "result": "Non-Toxic"}, {"measurement": "Activity", "setting": "[24]", "result": "Toxic"}, {"measurement": "Activity", "setting": "[25]", "result": "Non-Toxic"}, {"measurement": "Ratio", "setting": "HeLa [26]", "result": ">2040"}, {"measurement": "Drug uptake", "setting": "[27]", "result": "Not Active"}, {"measurement": "Activity", "setting": "A-375 [28]", "result": "Active"}, {"measurement": "Activity", "setting": "B16 [29]", "result": "Active"}, {"measurement": "Activity", "setting": "B16 [30]", "result": "Active"}]}
